Measured values: PubChem BioAssay (NCI)
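Compound exposure: 48 hours, 5 concentrations, 96-well plates. GI50 is the concentration that inhibits growth by half. At the TGI there is no net growth.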

Tests used:
Experiment in all cases: DTP human tumour cell line panel, 48 h
RPMI-8226 leukemia = tested on: RPMI-8226 leukemia
SF-295 CNS = tested on: SF-295 CNS
SW-620 colon = tested on: SW-620 colon
MOLT-4 leukemia = tested on: MOLT-4 leukemia
K-562 leukemia = tested on: K-562 leukemia
CAKI-1 renal = tested on: CAKI-1 renal
CCRF-CEM leukemia = tested on: CCRF-CEM leukemia
SNB-75 CNS = tested on: SNB-75 CNS
DU-145 prostate = tested on: DU-145 prostate
SR leukemia = tested on: SR leukemia

SMILES	TGI (RPMI-8226 leukemia) [µM]	TGI (SF-295 CNS) [µM]	TGI (SW-620 colon) [µM]	TGI (MOLT-4 leukemia) [µM]	TGI (K-562 leukemia) [µM]	TGI (CAKI-1 renal) [µM]	TGI (CCRF-CEM leukemia) [µM]	TGI (SNB-75 CNS) [µM]	TGI (DU-145 prostate) [µM]	GI50 (SNB-75 CNS) [µM]	GI50 (SF-295 CNS) [µM]	GI50 (SW-620 colon) [µM]	GI50 (MOLT-4 leukemia) [µM]	GI50 (DU-145 prostate) [µM]	GI50 (CAKI-1 renal) [µM]	GI50 (RPMI-8226 leukemia) [µM]	GI50 (K-562 leukemia) [µM]	GI50 (CCRF-CEM leukemia) [µM]	TGI (SR leukemia) [µM]
CC1=NN(C(=O)c2ccc(Cl)cc2)C(=O)/C1=C/c1ccccc1O	> 100	> 100	> 100	> 100	> 100	> 100	> 100												
C1CC2CN(CCCN3CCOCC3)C(C1)O2 (configuration not stated)	> 100	> 100	> 100	> 100	> 100	> 100		> 100	> 100										
NCCOCCOCCNc1nc(-c2ccc(Cl)cc2)nc(N2CCN(c3ccccn3)CC2)n1		6.46	3.35	3.85		5.24		7.45	4.51	2.32	2.35	1.75	1.99	2.17	2.01				
CN1CCc2c1nc(-c1ccc(Cl)cc1)c1c2N(C)CC1	37.1	31.1	> 100	31.4	62.1	29.9	55.2	67.7											
O=C(c1ccccc1)c1c(NCC(O)CN2CCOCC2)n(Cc2ccccc2)c(=O)n(Cc2ccccc2)c1=O (configuration not stated)	> 92.4	> 100	> 100	> 95.5	> 100	> 100	> 100	> 81.7	> 77.5	> 36.8	36.2	52.9	32.4	35.2	32.5	24	42.2	41.3	
CC(C)(C)OC(=O)NCCCn1c2c(c3ccccc3c1=O)C(=O)c1ccccc1-2		44.6	> 100	> 100	> 100	22.2	> 100		> 100		16.8	> 100	> 100	74.8	6.86		> 100	> 100	
C=CCC1=C(C)C[C@@H]2CCC(=O)C=C12	> 100	> 100	> 100	> 100	> 100	> 100	> 100	> 100											
COC(=O)c1c2c(cc3c1CC1(Cc4cc5c(c(C(C)=O)c4C1)CCC5)C3)CCC2 (configuration not stated)		99.3	> 100	> 100	> 100	> 100	> 100	74.2											> 100
CCCCCC[C@H](C)Nc1nc2ccccc2c2occc12	44.3	25.5	22.2	16.2	> 100	26.3	21.1	30.5	14	14.8	6.01	5.46	3.47	3.34	10.6	3.74	16.3	4.33	
C#Cc1c(C)c(/C=C/C(C)=C/C(=O)OC)n(C)c1C	> 100	> 100	> 100	> 100	> 100	> 100	> 100												
C=CC(=O)Nc1cc(N2CCN(CC)CC2)ccc1Nc1cc(N(C)C(=O)Nc2c(Cl)c(OC)cc(OC)c2Cl)ncn1	7.22	31.8	11.7	13.4		23.1	11.2	14.2	16.4	2.48	16.7	3.29	3.01	4.27	11.1	2.37		3.02	
COc1ccc(CCn2c(=O)c3ccccc3n(C)c2=O)cc1	> 100	> 100	> 100	> 100	> 100	> 100	> 100	> 100											
S=c1nc(N/N=C/c2ccco2)c2cn[nH]c2[nH]1	> 100	> 100	> 100		> 100	> 100	> 100	> 100	> 100	> 100	> 100	51		61.8	52.9	18.2	39.9	2.2	
CC(=O)[O-].[Mn+3].[O-]c1ccccc1C=NCCNCCN=Cc1ccccc1[O-]		> 100		> 100	> 100		> 100	> 100		> 100	> 100		> 100				> 100	86.1	
COc1ccc(C(=O)NNc2nc(Cl)nc(N3CCN(C(c4ccccc4)c4ccccc4)CC3)n2)cc1	> 100	30.6		5.15		3.48	4.12	3.49	13.6	1.65	16		1.64	3.93	1.84	33.7		1.25	
C[C@]12CC[C@H](O)CC1=CC[C@@H]1C2CC[C@]2(C)Nc3c(cnn3-c3ccccc3)CC12 (some centres not stated)	1.49	1.87	8.22	5.15	10.2	24.8	10.8	9.12											
Cc1cccc(C)c1NC(=O)CCc1nc(=S)[nH][nH]1	> 100		> 100	> 100	> 100	> 100	> 100	> 100											
CN(C)c1nc2ccccc2c2c1c1c(n2Cc2ccccc2)-c2ccccc2C1=O	> 100	> 100	> 100	> 100	> 100	> 100	> 100	> 100	> 100	54.2	> 100	> 100	25.5	> 100	> 100	> 100	> 100	62.7	
N/N=C1\C(=O)N(c2ccc(Cl)cc2Cl)C(=O)C(=O)C1c1nc2ccccc2o1 (configuration not stated)	> 100	> 100	> 100	> 100	> 100	> 100	> 100	> 100											
COc1ncnc(S(=O)(=O)c2ccc(N=C3C(=O)N(CN4CCN(c5cc6c(cc5F)c(=O)c(C(=O)O)cn6C5CC5)CC4)c4ccc(Cl)cc43)cc2)c1OC	> 50	> 50	> 50	> 50	> 50	> 50			> 50		> 50	> 50	24.9	> 50	12.7	13.5	24.6		
CC1CCSC(N(C(=O)N(C)c2ccccc2)c2ccccc2)=N1 (configuration not stated)	> 100	> 100	> 100	> 100	> 100	> 100	> 100	> 100											
O=C1C=CC(=O)c2c(O)c(NCCOCCO)c(Cl)c(O)c21	> 100	24.1	11	27.4	> 100	39.6		30.9											37.9
CC(C)CCCC(C)[C@H]1CCC2[C@@H]3CCC4Nc5c(cnn5-c5ccccc5)C[C@]4(C)C3CC[C@@]21C (some centres not stated)	> 100	7.46	> 100	> 100	> 100	78.4	> 100	25.7											
O=C(Nc1ccc(-c2nc(-c3cccc(OCCN4CCOCC4)c3)c(-c3ccnc(Br)c3)[nH]2)cc1)c1ccccc1	2.47		6.38	> 100		5.27	> 100	2.76	> 100	0.364		2.05	0.784	6.74	1.84	0.407		2.18	
O=c1ncccn1C1OC(CO)C(O)C1O (configuration not stated)	> 100		> 100		> 100	> 100	> 100	> 100											
O=C(O)CCNCCCCNCCC(=O)O	> 100	> 100	> 100	> 100	> 100	> 100	> 100	> 100											
CCCCCCCCNCCC[C@@H](C)[C@H]1CC[C@H]2[C@@H]3[C@H](OCCCN)C[C@H]4C[C@H](OCCCN)CC[C@]4(C)[C@H]3C[C@H](OCCCN)[C@]12C	3.49	4.43	3.85	9.69	11.5	15.4	4.27	11.6	2.35	2.52	0.993	1.72	3.12	1.14	3.09	1.27	2.84	1.89	
C=CCO/N=C(\OC(=O)c1ccc([N+](=O)[O-])cc1)c1ccccc1	> 100	> 100	> 100		> 100	> 100	> 100	> 100											
COc1ccc(C(=O)C(CC2C(=O)NC(=O)NC2=O)c2ccc(OC)cc2)cc1 (configuration not stated)		> 100	> 100	> 100	> 100	> 100	> 100	> 100											> 100
